# Source: the NIST ThermoML archive (doi:10.1016/j.jct.2005.07.016)
# Numbers after ± are expanded uncertainties.
# Key:
# [1] = Liquid
# [2] = refractive index (Na D-line) (dimensionless); settings: 298.15 K; 101.33 kPa; Liquid; Standard Abbe refractometry
vapor or sublimation pressure ([1]; 291.95 K),vapor or sublimation pressure ([1]; 295.15 K),vapor or sublimation pressure ([1]; 299.35 K),vapor or sublimation pressure ([1]; 307.05 K),vapor or sublimation pressure ([1]; 310.45 K),vapor or sublimation pressure ([1]; 316.75 K),SMILES,vapor or sublimation pressure ([1]; 298.15 K),vapor or sublimation pressure ([1]; 303.15 K),vapor or sublimation pressure ([1]; 308.15 K),vapor or sublimation pressure ([1]; 313.15 K),refractive index [2],vapor or sublimation pressure ([1]; 292.85 K),vapor or sublimation pressure ([1]; 295.55 K),vapor or sublimation pressure ([1]; 302.35 K),vapor or sublimation pressure ([1]; 306.25 K),vapor or sublimation pressure ([1]; 309.95 K),vapor or sublimation pressure ([1]; 313.65 K)
1.16 ± 0.1 kPa,1.5 ± 0.1 kPa,1.65 ± 0.11 kPa,2.6 ± 0.12 kPa,3 ± 0.13 kPa,4.03 ± 0.14 kPa,O=C1CCCC1 [cyclopentanone],1.61 ± 0.33 kPa,2.03 ± 0.11 kPa,2.68 ± 0.38 kPa,3.41 ± 0.13 kPa,1.4347 ± 0.0007,–,–,–,–,–,–
–,–,–,–,–,–,"CC(Cl)(Cl)Cl [1,1,1-trichloroethane]",16.69 ± 0.35 kPa,20.34 ± 0.41 kPa,25.22 ± 0.49 kPa,30.78 ± 0.57 kPa,1.4354 ± 0.0007,–,–,–,–,–,–
–,–,–,–,–,–,"ClCCCl [1,2-dichloroethane]",10.47 ± 0.25 kPa,13.34 ± 0.91 kPa,16.77 ± 1.1 kPa,20.88 ± 1.3 kPa,1.4421 ± 0.0007,8.09 ± 0.21 kPa,9.23 ± 0.23 kPa,12.81 ± 0.29 kPa,15.46 ± 0.33 kPa,18.17 ± 0.37 kPa,21.29 ± 0.42 kPa
